The assay addresses T1, Recombinant human p70S6K kinase (Homo sapiens, UniProt P23443).
T1 construct: purchased ThermoFisher Scientific PV3815
Description: S6K Enzymatic Inhibition Assay (HotSpot kinase assay; called S6K binding assay in Table 2). The class given is biochemical. The following applies: IC50 class. Here is the method:
Enzymatic activity was determined using a commercial HotSpot kinase assay. Recombinant human p70S6K kinase was purchased from ThermoFisher Scientific (cat #PV3815). The substrate S6K/RSK2 peptide 2 was synthesized at Genscript [Piscataway, NJ]. In brief, the substrate was prepared in the reaction buffer [20 mM Hepes (pH 7.5), 10 mM MgCl2, 1 mM EGTA, 0.02% Brij35, 0.02 mg/mL BSA, 0.1 mM Na3VO4, 2 mM DTT, 1% DMSO]. Testing compounds were dissolved in 100% DMSO and a serial dilution was conducted in DMSO. The kinase at final concentration of 3 nM was added into the substrate solution and gently mixed. Test compounds were delivered at the appropriate concentrations into the kinase reaction mixture by Echo550, and incubated for 20 minutes at room temperature. ^33P-ATP (Specific activity 10 μCi/μL) was added into the reaction mixture to initiate the reaction. Assay plates were incubated for 2 hours at room temperature. The radioactivity was detected by filter-binding method. Kinase activity data is expressed as the percent remaining kinase activity in test samples compared to vehicle (DMSO) reactions. IC50 curves were plotted and IC50 values were calculated using the GraphPad Prism 4 program based on a sigmoidal dose-response equation.
T1 sequence (P23443 whole entry): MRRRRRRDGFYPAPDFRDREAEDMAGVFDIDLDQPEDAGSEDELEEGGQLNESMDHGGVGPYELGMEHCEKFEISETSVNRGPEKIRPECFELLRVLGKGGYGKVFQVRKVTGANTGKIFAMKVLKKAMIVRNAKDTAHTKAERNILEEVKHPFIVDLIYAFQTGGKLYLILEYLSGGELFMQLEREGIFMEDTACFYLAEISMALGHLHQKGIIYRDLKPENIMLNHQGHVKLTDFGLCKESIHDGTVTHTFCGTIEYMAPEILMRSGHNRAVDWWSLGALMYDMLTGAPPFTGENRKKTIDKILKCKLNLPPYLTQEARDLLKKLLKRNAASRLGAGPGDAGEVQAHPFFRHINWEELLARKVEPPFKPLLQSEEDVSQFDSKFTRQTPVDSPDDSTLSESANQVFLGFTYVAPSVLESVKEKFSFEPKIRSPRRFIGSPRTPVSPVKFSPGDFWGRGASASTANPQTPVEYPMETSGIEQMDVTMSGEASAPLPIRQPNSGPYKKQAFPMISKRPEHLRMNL
In the case of `COc1ccc(-c2c(N)ncnc2-c2cnn(Cc3ccc(C(F)(F)F)cc3)c2)cc1F` [Example 32, 5-(3-Fluoro-4-methoxyphenyl)-6-(1-{[p-(trifluoromethyl)phenyl]methyl}-1H-pyrazol-4-yl)-4-pyrimidinylamine], the IC50 is less than 50 nM.
For the molecule `COc1ccc(-c2c(N)ncnc2-c2cnn(Cc3ccc(C(F)(F)F)cc3)c2)cc1Cl` [Example 30, 5-(3-Chloro-4-methoxyphenyl)-6-(1-{[p-(trifluoromethyl)phenyl]methyl}-1H-pyrazol-4-yl)-4-pyrimidinylamine], the IC50 lay in the range of 500 to 10000 nM.
As to `Nc1cc(-c2cnn(Cc3ccc(C(F)(F)F)cc3)c2)ccn1` [Example 36, 4-(1-{[p-(Trifluoromethyl)phenyl]methyl}-1H-pyrazol-4-yl)-2-pyridylamine], the IC50 was 500 to 10000 nM.
On to `Nc1ncnc(-c2cnn(Cc3ccc(C(F)(F)F)cc3)c2)c1-c1ccc2c(c1)OC(F)(F)O2` [Example 35, 5-(2,2-Difluoro-2H-1,3-benzodioxol-5-yl)-6-(1-{[p-(trifluoromethyl)phenyl]methyl}-1H-pyrazol-4-yl)-4-pyrimidinylamine], for which the IC50 lay within 500 to 10000 nM.
Take `Nc1ncnc(-c2cnn(Cc3ccc(C(F)(F)F)cc3)c2)c1-c1ccc(F)cc1` [Example 25, 5-(p-Fluorophenyl)-6-(1-{[p-(trifluoromethyl)phenyl]methyl}-1H-pyrazol-4-yl)-4-pyrimidinylamine]: the IC50 is less than 50 nM.
On to `CN(C)C(=O)C(c1ccccc1)n1cc(-c2ncnc(N)c2-c2ccc(Cl)cc2)cn1` (racemic) [Example 9, (±)-N,N-Dimethyl{4-[6-amino-5-(p-chlorophenyl)-4-pyrimidinyl]-1H-pyrazol-1-yl}phenylacetamide], for which the IC50 lay within 50 to 500 nM.
Consider `COc1cc(-c2c(N)ncnc2-c2cnn(Cc3ccc(C(F)(F)F)cc3)c2)ccc1F` [Example 33, 5-(4-Fluoro-3-methoxyphenyl)-6-(1-{[p-(trifluoromethyl)phenyl]methyl}-1H-pyrazol-4-yl)-4-pyrimidinylamine], for which the IC50 lay in the range of 500 to 10000 nM.
With `COc1ccc(-c2c(-c3cnn(Cc4ccc(C(F)(F)F)cc4)c3)ccnc2N)cc1` [Example 38, 3-(p-Methoxyphenyl)-4-(1-{[p-(trifluoromethyl)phenyl]methyl}-1H-pyrazol-4-yl)-2-pyridylamine], the IC50 was less than 50 nM.
On to `NCC(c1ccccc1)n1cc(-c2ncnc(N)c2-c2ccc(Cl)cc2)cn1` (racemic) [Example 6, (±)-6-[1-(2-Amino-1-phenylethyl)-1H-pyrazol-4-yl]-5-(p-chlorophenyl)-4-pyrimidinamine], for which the IC50 was less than 50 nM.
On to `Nc1ncnc(-c2cnn(C3CCCCO3)c2)c1-c1ccc(Cl)cc1` (stereo not drawn) [Example 14, 5-(p-Chlorophenyl)-6-[1-(tetrahydro-2H-pyran-2-yl)-1H-pyrazol-4-yl]-4-pyrimidinylamine], for which the IC50 fell in the range of 500 to 10000 nM.
Under `Nc1ncnc(-c2cnn(Cc3ccc(F)cc3)c2)c1-c1ccc(Cl)cc1` [Example 18, 5-(p-Chlorophenyl)-6-{1-[(p-fluorophenyl)methyl]-1H-pyrazol-4-yl}-4-pyrimidinylamine] stands less than 50 nM; under `Nc1ncnc(-c2cnn(Cc3ccc(C(F)(F)F)cc3)c2)c1-c1ccc(OC(F)(F)F)cc1` [Example 34, 5-(p-Trifluoromethoxyphenyl)-6-(1-{[p-(trifluoromethyl)phenyl]methyl}-1H-pyrazol-4-yl)-4-pyrimidinylamine], 500 to 10000 nM.

The values are drawn from patent US12234224B2, “Pyrimidine and pyridine amine compounds and usage thereof in disease treatment” (Epigen Biosciences, Inc., priority 2021, dated 2025).
